Experimental data taken from patent US20090047243A1, “COMBINATIONS FOR THE TREATMENT OF B-CELL PROLIFERATIVE DISORDERS” (priority 2007, published 2009).
Counter-ions that a name gives are not always drawn.

Assays:
[1] = tested on: human multiple myeloma cells (MM.1R) transfected with siRNA; test: Anti-proliferation assay after siRNA transfection; assay type: cell-based
Protocol: siRNA to adenosine receptor A1, A2A, A3, PDE 2A, PDE 3B, PDE 4B, PDE 4D and PDE 7A, and control siRNA siCON were purchased from Dharmacon. A2B siRNA was purchased from Invitrogen. Electroporations were performed using an Amaxa Nucleoporator (program S-20) and solution V. siRNAs were used at 50 nM. […] RNA was isolated using Qiagen RNAeasy kits, and targets quantified by RT-PCR using gene specific primers purchased from Applied Biosystems.
Cells were added to 384-well plates 24 hours prior to compound addition such that each well contained 2000 cells in 35 μL of media. Master plates were diluted 100× (1 μL into 100 μL) into 384-well dilution plates containing only cell culture media. 4.5 μL from each dilution plate was added to each assay plate for a final dilution of 1000×. To obtain combination data, two master plates were diluted into the assay plates. Following compound addition, assay plates were kept at 37° C. and 5% CO2 for 72 hours. Thirty microliters of ATPLite (Perkin Elmer) at room temperature was then added to each well. Final amount of ATP was quantified within 30 minutes using ATPLite luminescent read-out on an Envision 2103 Multilabel Reader (Perkin Elmer). Measurements were taken at the top of the well using a luminescence aperture and a read time of 0.1 seconds per well.
We also examined the antiproliferative activity of adenosine receptor agonists when the MM cell line MM.1R was transfected with siRNA targeting the A1, A2A, A2B or A3 receptor. Specific gene silencing (A1, A2A, A2B, or A3) was greater than 50% as determined by real time PCR analysis 48 hours post-transfection. At 48 hours post-transfection, cells were exposed to adenosine receptor agonist, incubated an additional 72 hours, and compounds assayed for antiproliferative activity. Representative data is in Table 34. Cells transfected with adenosine receptor siRNA or a control siRNA (scrambled sequences designed so that cellular transcriptsare not targeted) were treated with the adenosine receptor agonist ADAC. […] Similar results were obtained with a second siRNA with specificity for different region of the A2A receptor mRNA, confirming that the reduction in adenosine receptor agonist activity is the result of specific siRNA targeting of the A2A receptor (data not shown).
In our experiments, PDE gene silencing was always greater than 50% as confirmed by real time PCR analysis 48 hours post-transfection. At 48 hours post-transfection, cells were exposed to adenosine receptor agonist and PDE inhibitor, incubated an additional 72 hours, and compounds assayed for antiproliferative activity. Representative data is in Tables 39-45. For each analysis, the activity of cells transfected with an siRNA targeting a specific PDE was compared to cells transfected with a control non-targeting siRNA (siCON).

OPM2 MM cell line = test: Anti-proliferation assay (ATPLite, 72 h); assay type: cell-based, human; conditions: CGS-21680 × PDE inhibitor
Protocol: (§1) ANBL6 and INA-6 culture media was also supplemented with 10 ng/ml IL-6. […] MM.1S, MM.1R, OCI-ly10, Karpas 422, and SU-DHL6 cells were provided by the Dana Farber Cancer Institute. H929, RPMI-8226, GA-10, and Farage cells were from ATCC (Cat #'s CCL-155, CRL-9068, CRL-2392 and CRL-2630 respectively). MOLP-8, EJM, KSM-12-PE, and OPM2 were from DSMZ. The ANBL6 and INA-6 cell lines were provided by the M. D. Anderson Cancer Research Center. Compounds were prepared in DMSO at 1000× the highest desired concentration. Master plates were generated consisting of serially diluted compounds in 2- or 3-fold dilutions in 384-well format. For single agent dose response curves, the master plates consisted of 9 individual compounds at 12 concentrations in 2- or 3-fold dilutions. For combination matrices, master plates consisted of individual compounds at 6 or 9 concentrations at 2- or 3-fold dilutions. […] To obtain combination data, two master plates were diluted into the assay plates. […] Thirty microliters of ATPLite (Perkin Elmer) at room temperature was then added to each well. […] Measurements were taken at the top of the well using a luminescence aperture and a read time of 0.1 seconds per well. The percent inhibition (% I) for each well was calculated using the following formula: % I=[(avg. untreated wells-treated well)/(avg. untreated wells)]×100. […] Negative inhibition values result from local variations in treated wells as compared to untreated wells. […] The uncertainty of each fitted parameter was estimated from the range over which the change in reduced chi-squared was less than one, or less than minimum reduced chi-squared if that minimum exceeded one, to allow for underestimated σI errors. Single agent curve data were used to define a dilution series for each compound to be used for combination screening in a 6×6 matrix format. […] The Loewe additivity model was used to quantify combination effects. […] A “Synergy Score” was also used, where the Synergy Score S=log fX log fY ΣIdata(Idata-ILoewe), summed over all non-single-agent concentration pairs, and where log fX,Y is the natural logarithm of the dilution factors used for each single agent. This effectively calculates a volume between the measured and Loewe additive response surfaces, weighted towards high inhibition and corrected for varying dilution factors. An uncertainty σS was calculated for each synergy score, based on the measured errors for the Idata values and standard error propagation.

MOLP-8 MM cell line = test: Anti-proliferation assay (ATPLite, 72 h); assay type: cell-based, human; conditions: CGS-21680 × PDE inhibitor
Protocol: as §1

ANBL6 MM cell line = test: Anti-proliferation assay (ATPLite, 72 h); assay type: cell-based, human; conditions: CGS-21680 × PDE inhibitor
Protocol: as §1

INA-6 MM cell line = test: Anti-proliferation assay (ATPLite, 72 h); assay type: cell-based, human; conditions: CGS-21680 × PDE inhibitor
Protocol: as §1

KSM-12-PE MM cell line = test: Anti-proliferation assay (ATPLite, 72 h); assay type: cell-based, human; conditions: CGS-21680 × PDE inhibitor
Protocol: as §1

EJM MM cell line = test: Anti-proliferation assay (ATPLite, 72 h); assay type: cell-based, human; conditions: CGS-21680 × PDE inhibitor
Protocol: as §1

[2] = tested on: H929 multiple myeloma cell line; test: Anti-proliferation assay (ATPLite, 72 h); assay type: cell-based, human; parameters: key: S = lnfX·lnfY·ΣIdata(Idata−ILoewe), volume over Loewe additivity; conditions: for synergy (score), PDEi × HE-NECA: 6×6 cross of PDE inhibitor or PDE inhibitor mixture with HE-NECA
Method in brief: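 Cells treated 72 h with compounds in 2- or 3-fold serial dilutions (12 concentrations for single agents; 6×6 matrix for combinations); INA-6 medium supplemented with 10 ng/ml IL-6. Viability by ATPLite luminescence; % inhibition vs untreated wells, curves fitted, combinations assessed by Loewe additivity and Synergy Score.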

[3] = PDE inhibitor crossed with (S) ENBA, H929
[4] = PDE inhibitor crossed with Chloro-IB-MECA, H929
[5] = PDE inhibitor crossed with HE-NECA, H929
[6] = in combination with adenosine receptor agonist CGS-21680, H929
[7] = in combination with adenosine receptor agonist HE-NECA, H929
[8] = in combination with adenosine receptor agonist regadenoson, H929

NCCNC(=O)Cc1ccc(NC(=O)Cc2ccc(Nc3ncnc4c3ncn4[C@@H]3O[C@H](CO)[C@@H](O)[C@H]3O)cc2)cc1 [ADAC, N-(4-(2-((4-(2-((2-aminoethyl)amino)-2-oxoethyl)phenyl)amino)-2-oxoethyl)phenyl)-Adenosine]
Antiproliferative activity ([1]; A1 siRNA, ADAC 0.013 μM): 18%
Antiproliferative activity ([1]; A1 siRNA, ADAC 0.063 μM): 16%
Antiproliferative activity ([1]; A1 siRNA, ADAC 0.51 μM): 41%
Antiproliferative activity ([1]; A1 siRNA, ADAC 1 μM): 52%
Antiproliferative activity ([1]; A2A siRNA, ADAC 0.013 μM): 12%
Antiproliferative activity ([1]; A2A siRNA, ADAC 0.063 μM): 6.7%
Antiproliferative activity ([1]; A2A siRNA, ADAC 0.51 μM): 19%
Antiproliferative activity ([1]; A2A siRNA, ADAC 1 μM): 24%
Antiproliferative activity ([1]; A2B siRNA, ADAC 0.013 μM): 17%
Antiproliferative activity ([1]; A2B siRNA, ADAC 0.063 μM): 12%
Antiproliferative activity ([1]; A2B siRNA, ADAC 0.51 μM): 40%
Antiproliferative activity ([1]; A2B siRNA, ADAC 1 μM): 53%
Antiproliferative activity ([1]; A3 siRNA, ADAC 0.013 μM): 22%
Antiproliferative activity ([1]; A3 siRNA, ADAC 0.063 μM): 18%
Antiproliferative activity ([1]; A3 siRNA, ADAC 0.51 μM): 46%
Antiproliferative activity ([1]; A3 siRNA, ADAC 1 μM): 54%
antiproliferative activity after siRNA silencing ([1]; MM.1R, siRNA that targeted the A2A receptor): reduced
antiproliferative activity after siRNA silencing ([1]; MM.1R, siRNA to the A1, A2B, or A3 receptor): did not affect ADAC activity
Antiproliferative activity ([1]; control siRNA, ADAC 0.013 μM): 19%
Antiproliferative activity ([1]; control siRNA, ADAC 0.063 μM): 15%
Antiproliferative activity ([1]; control siRNA, ADAC 0.51 μM): 43%
Antiproliferative activity ([1]; control siRNA, ADAC 1 μM): 54%

CCCCC#Cc1nc(N)c2ncn([C@@H]3O[C@H](C(=O)NCC)[C@@H](O)[C@H]3O)c2n1 [HE-NECA, hexynyladenosine-5′-N-ethylcarboxamide]
Antiproliferative activity ([1]; A2A siRNA, HE-NECA 0.5 μM): 30%
Antiproliferative activity ([1]; A2A siRNA, HE-NECA 1 μM): 29%
Antiproliferative activity ([1]; A2A siRNA, HE-NECA 2 μM): 38%
Antiproliferative activity ([1]; A2A siRNA, HE-NECA 4.1 μM): 40%
effect of A2A receptor silencing on agonist activity ([1]; MM.1R, A2A siRNA): strong effect
Antiproliferative activity ([1]; MM.1R, siRNA targeting PDE 2A, HE-NECA 1.25 nM, R-(−)-Rolipram 0 μM): 36
Antiproliferative activity ([1]; MM.1R, siRNA targeting PDE 2A, HE-NECA 5 nM, R-(−)-Rolipram 0 μM): 51
Antiproliferative activity ([1]; MM.1R, siRNA targeting PDE 2A, HE-NECA 10 nM, R-(−)-Rolipram 0 μM): 55
Antiproliferative activity ([1]; MM.1R, siRNA targeting PDE 2A, HE-NECA 20 nM, R-(−)-Rolipram 0 μM): 68
Antiproliferative activity ([1]; MM.1R, siRNA targeting PDE 2A, HE-NECA […], R-(−)-Rolipram 0 μM): 48
Antiproliferative activity ([1]; control siRNA, HE-NECA 0.5 μM): 68%
Antiproliferative activity ([1]; control siRNA, HE-NECA 1 μM): 68%
Antiproliferative activity ([1]; control siRNA, HE-NECA 2 μM): 73%
Antiproliferative activity ([1]; control siRNA, HE-NECA 4.1 μM): 74%

COc1cc2c(cc1OC)-c1cc(=Nc3c(C)cc(C)cc3C)n(C)c(=O)n1CC2 [Trequinsin hydrochloride, 2,3,6,7-tetrahydro-9,10-dimethoxy-3-methyl-2-((2,4,6-trimethylphenyl)imino)-4H-pyrimido(6,1-a)isoquinolin-4-one]
synergy score (OPM2 MM cell line): 4.74
synergy score (MOLP-8 MM cell line): 4.7
synergy score (ANBL6 MM cell line): 4.55
synergy score (INA-6 MM cell line): 3.93
synergy score (KSM-12-PE MM cell line): 2.44
synergy score (EJM MM cell line): 4.81
synergy (score), PDEi × HE-NECA ([2]; H929): 4.22
synergy score [2, 3]: 3.38
synergy score ([2]; PDE inhibitor crossed with ADAC, H929): 3.04
synergy score [2, 4]: 2.77
synergy score [2, 5]: 4.34
synergy score ([2]; in combination with adenosine receptor agonist ADAC, H929): 3.044
synergy score [2, 6]: 3.33
synergy score [2, 7]: 3.141
synergy score [2, 8]: 1.99

COc1cc(-c2ccc(=O)[nH]n2)ccc1OC(F)F [Zardaverine, 6-(4-(difluoromethoxy)-3-methoxyphenyl)-3(2H)-Pyridazinone]
synergy score (OPM2 MM cell line): 1.15
synergy score (MOLP-8 MM cell line): 3.06
synergy score (ANBL6 MM cell line): 2.11
synergy score (INA-6 MM cell line): 2.69
synergy score (KSM-12-PE MM cell line): 0.49
synergy score (EJM MM cell line): 0.98
synergy (score), PDEi × HE-NECA ([2]; H929): 3.39
synergy score [2, 3]: 4.02
synergy score [2, 4]: 2.97
synergy score [2, 5]: 3.39
synergy score [2, 6]: 3.75
synergy score [2, 7]: 3.39
synergy score [2, 8]: 1.02
